The term Kd denotes the constant that tells how readily two partners part at equilibrium. Higher therefore signals weaker binding.

A value given as a limit tells only on which side of the number the result lay.

Experiment [1] deals with 5'GAG/3'CCC internal loop RNA (Cy5-labeled model of pri-miR-27a's Drosha site) (RNA, mismatch bulge abasic) CUGAGGUGAAACAUCCCAG
As to the kind of experiment: microscale thermophoresis. As to conditions: 1x Binding Buffer; for Kd: 0.1% Tween-20, 10 nM Cy5-RNA, room temperature. On the technique in general: MST reads how a fluorescent partner responds to local heating, with and without ligand.

The test system of experiment [2] is 5'CAG/3'GCC internal loop RNA (closing GC mutated to CG) (RNA, mismatch bulge abasic) CUCAGGUGAAACAUCCGAG
As to the kind of experiment: microscale thermophoresis. As to conditions: 1x Binding Buffer, 0.1% Tween-20, room temperature; for Kd: no saturable binding.

In experiment [3] the test system is fully paired RNA (loop mutated to a base pair) (RNA, hairpin) CUGAGGUGAAACAUCUCAG
In words: microscale thermophoresis. To be noted: 1x Binding Buffer, 0.1% Tween-20, room temperature.

Experiment [4] has as its system WT pri-miR-27a (unlabeled miR-27a precursor) (RNA, miRNA) GAGAGAGGCCCCGAAGCCUGUGCCUGGCCUGAGGAGCAGGGCUUAGCUGCUUGUGAGCAGGGUCCACACCAAGUCGUGUUCACAGUGGCUAAGUUCCGCCCCCCAGGCCCUCACCUCCUCUGGCCUUGCC
In words: competitive binding assay. As to conditions: 100 nM compound; competes with Cy5-labeled model of the Drosha site.

Experiment [5] concerns mutated pri-miR-27a (both 5'GAG/3'CCC loops mutated to base pairs) (RNA, miRNA) GAGAGAGGCCCCGAAGCCUGUGCCUGGCCUGAGGAGCAGGGCUUAGCUGCUUGUGAGCAGGGUCCACACCAAGUCGUGUUCACAGUGGCUAAGUUCCGCUCCUCAGGCCCUCACCUCCUCUGGCCUUGCC
As to the kind of experiment: competitive binding assay. To be noted: 100 nM compound; competes with Cy5-labeled model of the Drosha site.

As for `C#CCN(CC(N)=O)C(=O)C[C@H](Cc1c[nH]c2ccccc12)NC(=O)[C@@H]1C[C@@H](NC(=O)Cn2c(=O)[nH]c3ccccc3c2=O)CN1`, the binding entry in experiment [1] (0.1% Tween-20, room temperature) is recorded as “no”; in experiment [2] it was “no”; in experiment [3] it was “no”.

With `C#CCN(CC(N)=O)C(=O)[C@H](Cc1ccccc1C#N)NC(=O)[C@@H]1C[C@H](NC(=O)[C@H]2CCCO2)CN1`, the Kd was 530 ± 90 nM in experiment [1] and greater than 50000 nM in experiment [2]. Moreover, the binding result in experiment [3] (no saturable binding) is reported as “no”.

With `C#CCN(CC(N)=O)C(=O)C[C@H](Cc1c[nH]c2ccccc12)NC(=O)[C@@H]1C[C@H](NC(=O)Cn2c(=O)[nH]c3ccccc3c2=O)CN1`, the equilibrium dissociation constant (Kd) is 90 ± 20 nM in experiment [1], greater than 50000 nM in experiment [2] and 40 ± 30 nM in experiment [4]. Moreover, the binding entry in experiment [3] (no saturable binding) and in experiment [5] was “no” each time.

Turning to `C#CCN(CC(N)=O)C(=O)[C@@H]1CCN1C(=O)[C@@H]1C[C@H](N)CN1C(=O)c1ccccc1C(=O)N1CCOCC1`, the Kd was 700 ± 100 nM in experiment [1] and greater than 50000 nM in experiment [2]. Also, the binding result in experiment [3] (no saturable binding) is listed as “no”.
